Reference: ChEMBL document CHEMBL3616445, “Design, synthesis and biological evaluation of multifunctional ligands targeting opioid and bradykinin 2 receptors” (Bioorg Med Chem Lett, 2015)
Square brackets hold non-standard residues; d marks the D form. Side chains are listed from the residue outwards. Peptide text beside a SMILES is read from it. Oic = O=C(O)[C@@H]1C[C@@H]2CCCC[C@@H]2N1; Hyp = O=C(O)[C@@H]1C[C@@H](O)CN1; dTic = O=C(O)[C@H]1Cc2ccccc2CN1; 2Thi = N[C@@H](Cc1cccs1)C(=O)O; Dap = NC[C@H](N)C(=O)O

Experiments:
Mu-type opioid receptor = Mu-type opioid receptor (Rattus norvegicus, UniProt P33535); test: Displacement of [3H]DAMGO from rat mu opiod receptor
Mu-type opioid receptor, sequence (P33535 whole entry): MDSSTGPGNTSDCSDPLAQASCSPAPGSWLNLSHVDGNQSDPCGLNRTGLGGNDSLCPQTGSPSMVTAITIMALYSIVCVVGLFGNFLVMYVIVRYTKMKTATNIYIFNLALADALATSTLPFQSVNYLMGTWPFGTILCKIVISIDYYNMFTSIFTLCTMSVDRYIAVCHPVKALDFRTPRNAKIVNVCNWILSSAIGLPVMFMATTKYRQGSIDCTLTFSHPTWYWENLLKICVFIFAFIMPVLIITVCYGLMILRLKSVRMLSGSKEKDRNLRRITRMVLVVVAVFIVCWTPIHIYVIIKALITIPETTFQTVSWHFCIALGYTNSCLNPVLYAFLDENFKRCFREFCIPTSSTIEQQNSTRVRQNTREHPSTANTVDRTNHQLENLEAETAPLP

B2 bradykinin receptor [1] = molecular target: T1, B2 bradykinin receptor (Rattus norvegicus, UniProt P25023); test: Displacement of [3H]BK from B2R in rat brain membranes by liquid scintillation counting in based radioligand competition assay; type: cell membranes, Membrane
T1 sequence (P25023 whole entry): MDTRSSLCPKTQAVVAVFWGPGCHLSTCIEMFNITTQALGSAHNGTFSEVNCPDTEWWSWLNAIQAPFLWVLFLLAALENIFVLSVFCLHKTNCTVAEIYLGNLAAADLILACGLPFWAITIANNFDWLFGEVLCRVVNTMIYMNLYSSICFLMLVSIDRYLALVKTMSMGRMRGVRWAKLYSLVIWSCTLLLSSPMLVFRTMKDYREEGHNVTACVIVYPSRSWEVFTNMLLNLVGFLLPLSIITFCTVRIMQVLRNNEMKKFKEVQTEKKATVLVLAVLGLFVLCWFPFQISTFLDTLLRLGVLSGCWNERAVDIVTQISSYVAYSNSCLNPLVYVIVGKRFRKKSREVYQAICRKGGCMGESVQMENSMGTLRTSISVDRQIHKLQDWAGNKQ

[2] = molecular target: Delta-type opioid receptor (Homo sapiens, UniProt P41143); test: Displacement of [3H]DPDPE from human delta opiod receptor
Delta-type opioid receptor, sequence (P41143 whole entry): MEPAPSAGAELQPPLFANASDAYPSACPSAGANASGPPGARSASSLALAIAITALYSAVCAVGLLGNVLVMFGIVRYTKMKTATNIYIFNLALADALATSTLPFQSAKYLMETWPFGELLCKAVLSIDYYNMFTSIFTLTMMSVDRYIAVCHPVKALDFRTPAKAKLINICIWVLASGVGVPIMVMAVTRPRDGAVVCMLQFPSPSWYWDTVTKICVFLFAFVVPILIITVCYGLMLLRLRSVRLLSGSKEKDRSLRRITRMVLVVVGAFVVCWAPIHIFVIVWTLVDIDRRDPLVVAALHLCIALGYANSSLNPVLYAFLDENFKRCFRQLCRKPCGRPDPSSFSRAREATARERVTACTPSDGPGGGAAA

B2 bradykinin receptor [3] = molecular target: T2, B2 bradykinin receptor (Cavia porcellus, UniProt O70526); test: Binding affinity to B2R in guinea pig ileum membranes; type: cell membranes, Membrane
T2 sequence (O70526 whole entry): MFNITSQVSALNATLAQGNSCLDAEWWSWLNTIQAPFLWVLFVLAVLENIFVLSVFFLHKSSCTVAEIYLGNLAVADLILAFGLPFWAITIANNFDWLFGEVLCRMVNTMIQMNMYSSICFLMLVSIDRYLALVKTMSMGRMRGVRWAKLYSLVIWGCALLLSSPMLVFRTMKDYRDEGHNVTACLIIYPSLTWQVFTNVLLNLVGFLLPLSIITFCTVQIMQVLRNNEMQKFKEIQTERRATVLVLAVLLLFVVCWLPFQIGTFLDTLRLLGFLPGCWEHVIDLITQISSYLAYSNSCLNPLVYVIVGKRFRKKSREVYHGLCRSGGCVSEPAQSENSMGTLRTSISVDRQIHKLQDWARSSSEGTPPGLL

B2 bradykinin receptor [4] = molecular target: T2, B2 bradykinin receptor; test: Antagonist activity against B2R in Hartley guinea pig ileum assessed as reduction in electrically-induced response; type: tissue-based

## N=C(N)NCCC[C@H](NC(=O)[C@@H]1C[C@@H]2CCCC[C@@H]2N1C(=O)[C@H]1Cc2ccccc2CN1C(=O)[C@H](CO)NC(=O)[C@H](Cc1cccs1)NC(=O)CNC(=O)[C@@H]1C[C@@H](O)CN1C(=O)[C@@H]1CCCN1C(=O)[C@H](CCCNC(=N)N)NC(=O)[C@@H](CCCNC(=N)N)NC(=O)[C@H](Cc1ccccc1)NC(=O)[C@@H]1CCCN1C(=O)[C@@H](N)Cc1ccc(O)cc1)C(=O)O
Mu-type opioid receptor
  Ki: 2300 nM
  pIC50: 5.29
B2 bradykinin receptor [1]
  Ki: > 10000 nM
[2]
  Ki: > 10000 nM

## NC(N)=NCCC[C@@H](N)C(=O)N[C@@H](CCCN=C(N)N)C(=O)N1CCC[C@H]1C(=O)N1C[C@H](O)C[C@H]1C(=O)NCC(=O)N[C@@H](Cc1cccs1)C(=O)N[C@@H](CO)C(=O)N1Cc2ccccc2C[C@@H]1C(=O)N1[C@H](C(=O)N[C@@H](CCCN=C(N)N)C(=O)O)C[C@@H]2CCCC[C@@H]21
B2 bradykinin receptor [1]
  Ki: > 10000 nM
B2 bradykinin receptor [3]
  Ki: 1 nM

## C[C@@H](NC(=O)[C@@H](N)Cc1ccc(O)cc1)C(=O)NCC(=O)N[C@@H](Cc1ccccc1)C(=O)NCCCCCCCC(=O)N[C@H](CCCNC(=N)N)C(=O)N[C@@H](CCCNC(=N)N)C(=O)N1CCC[C@H]1C(=O)N1C[C@H](O)C[C@H]1C(=O)NCC(=O)N[C@@H](Cc1cccs1)C(=O)N[C@@H](CO)C(=O)N1Cc2ccccc2C[C@@H]1C(=O)N1[C@H](C(=O)N[C@@H](CCCNC(=N)N)C(=O)O)C[C@@H]2CCCC[C@@H]21
Mu-type opioid receptor
  IC50: 1.23 nM
[2]
  IC50: 4.68 nM

## C[C@@H](NC(=O)[C@@H](N)Cc1ccc(O)cc1)C(=O)NCC(=O)N[C@@H](Cc1ccccc1)C(=O)NCCCCCCCC(=O)NC[C@H](N)C(=O)N[C@H](CCCNC(=N)N)C(=O)N[C@@H](CCCNC(=N)N)C(=O)N1CCC[C@H]1C(=O)N1C[C@H](O)C[C@H]1C(=O)NCC(=O)N[C@@H](Cc1cccs1)C(=O)N[C@@H](CO)C(=O)N1Cc2ccccc2C[C@@H]1C(=O)N1[C@H](C(=O)N[C@@H](CCCNC(=N)N)C(=O)O)C[C@@H]2CCCC[C@@H]21
Mu-type opioid receptor
  IC50: 0.813 nM
  Ki: 0.3 nM

## N=C(N)NCCC[C@H](NC(=O)[C@@H]1C[C@@H]2CCCC[C@@H]2N1C(=O)[C@H]1Cc2ccccc2CN1C(=O)[C@H](CO)NC(=O)[C@H](Cc1cccs1)NC(=O)CNC(=O)[C@@H]1C[C@@H](O)CN1C(=O)[C@@H]1CCCN1C(=O)[C@H](CCCNC(=N)N)NC(=O)[C@@H](CCCNC(=N)N)NC(=O)[C@H](Cc1ccccc1)NC(=O)[C@H](Cc1ccccc1)NC(=O)[C@@H]1CCCN1C(=O)[C@@H](N)Cc1ccc(O)cc1)C(=O)O
Mu-type opioid receptor
  Ki: 480 nM
  pIC50: 5.97
B2 bradykinin receptor [1]
  Ki: > 10000 nM
[2]
  Ki: > 10000 nM
B2 bradykinin receptor [4]
  IC50: 1.9 nM

## CSCC[C@H](NC(=O)[C@H](Cc1ccccc1)NC(=O)[C@@H](C)NC(=O)[C@@H](N)Cc1ccc(O)cc1)C(=O)N[C@H](CCCNC(=N)N)C(=O)N[C@@H](CCCNC(=N)N)C(=O)N1CCC[C@H]1C(=O)N1C[C@H](O)C[C@H]1C(=O)NCC(=O)N[C@@H](Cc1cccs1)C(=O)N[C@@H](CO)C(=O)N1Cc2ccccc2C[C@@H]1C(=O)N1[C@H](C(=O)N[C@@H](CCCNC(=N)N)C(=O)O)C[C@@H]2CCCC[C@@H]21
Mu-type opioid receptor
  IC50: 155 nM
  Ki: 70 nM
B2 bradykinin receptor [1]
  Ki: 5200 nM
[2]
  IC50: 17000 nM
  Ki: 6900 nM
B2 bradykinin receptor [4]
  IC50: 1.8 nM

## C[C@@H](NC(=O)[C@@H](N)Cc1ccc(O)cc1)C(=O)NCC(=O)N[C@@H](Cc1ccccc1)C(=O)NC[C@H](N)C(=O)NCCC(=O)N[C@H](CCCNC(=N)N)C(=O)N[C@@H](CCCNC(=N)N)C(=O)N1CCC[C@H]1C(=O)N1C[C@H](O)C[C@H]1C(=O)NCC(=O)N[C@@H](Cc1cccs1)C(=O)N[C@@H](CO)C(=O)N1Cc2ccccc2C[C@@H]1C(=O)N1[C@H](C(=O)N[C@@H](CCCNC(=N)N)C(=O)O)C[C@@H]2CCCC[C@@H]21
Mu-type opioid receptor
  Ki: 0.5 nM
  pIC50: 8.94
[2]
  Ki: 7 nM
  pIC50: 7.77

## C[C@@H](NC(=O)[C@@H](N)Cc1ccc(O)cc1)C(=O)NCC(=O)N[C@@H](Cc1ccccc1)C(=O)NCCC(=O)N[C@H](CCCNC(=N)N)C(=O)N[C@@H](CCCNC(=N)N)C(=O)N1CCC[C@H]1C(=O)N1C[C@H](O)C[C@H]1C(=O)NCC(=O)N[C@@H](Cc1cccs1)C(=O)N[C@@H](CO)C(=O)N1Cc2ccccc2C[C@@H]1C(=O)N1[C@H](C(=O)N[C@@H](CCCNC(=N)N)C(=O)O)C[C@@H]2CCCC[C@@H]21
Mu-type opioid receptor
  IC50: 3.09 nM
[2]
  IC50: 91.2 nM

## C[C@@H](NC(=O)[C@@H](N)Cc1ccc(O)cc1)C(=O)NCC(=O)N[C@@H](Cc1ccccc1)C(=O)N[C@H](CCCNC(=N)N)C(=O)N[C@@H](CCCNC(=N)N)C(=O)N1CCC[C@H]1C(=O)N1C[C@H](O)C[C@H]1C(=O)NCC(=O)N[C@@H](Cc1cccs1)C(=O)N[C@@H](CO)C(=O)N1Cc2ccccc2C[C@@H]1C(=O)N1[C@H](C(=O)N[C@@H](CCCNC(=N)N)C(=O)O)C[C@@H]2CCCC[C@@H]21
Mu-type opioid receptor
  IC50: 22.9 nM
B2 bradykinin receptor [1]
  Ki: > 10000 nM
[2]
  IC50: 4170 nM
B2 bradykinin receptor [4]
  IC50: 1.7 nM

## C[C@@H](NC(=O)[C@@H](N)Cc1ccc(O)cc1)C(=O)NCC(=O)N[C@@H](Cc1ccccc1)C(=O)NC[C@H](N)C(=O)N[C@H](CCCNC(=N)N)C(=O)N[C@@H](CCCNC(=N)N)C(=O)N1CCC[C@H]1C(=O)N1C[C@H](O)C[C@H]1C(=O)NCC(=O)N[C@@H](Cc1cccs1)C(=O)N[C@@H](CO)C(=O)N1Cc2ccccc2C[C@@H]1C(=O)N1[C@H](C(=O)N[C@@H](CCCNC(=N)N)C(=O)O)C[C@@H]2CCCC[C@@H]21
Mu-type opioid receptor
  IC50: 1.41 nM
  Ki: 0.6 nM

## C[C@@H](NC(=O)[C@@H](N)Cc1ccc(O)cc1)C(=O)NCC(=O)N[C@@H](Cc1ccccc1)C(=O)NC[C@H](NC(=O)[C@@H]1CCCN1C(=O)[C@H](CCCNC(=N)N)NC(=O)[C@H](N)CCCNC(=N)N)C(=O)NCC(=O)N[C@@H](Cc1cccs1)C(=O)N[C@@H](CO)C(=O)N1Cc2ccccc2C[C@@H]1C(=O)N1[C@H](C(=O)N[C@@H](CCCNC(=N)N)C(=O)O)C[C@@H]2CCCC[C@@H]21
Mu-type opioid receptor
  IC50: 4.79 nM
[2]
  IC50: 6.76 nM

## C[C@@H](NC(=O)[C@@H](N)Cc1ccc(O)cc1)C(=O)NCC(=O)N[C@@H](Cc1ccccc1)C(=O)NC[C@H](NC(=O)[C@H](Cc1cccs1)NC(=O)CNC(=O)[C@@H]1C[C@@H](O)CN1C(=O)[C@@H]1CCCN1C(=O)[C@H](CCCNC(=N)N)NC(=O)[C@H](N)CCCNC(=N)N)C(=O)N1Cc2ccccc2C[C@@H]1C(=O)N1[C@H](C(=O)N[C@@H](CCCNC(=N)N)C(=O)O)C[C@@H]2CCCC[C@@H]21 (H-[dR]RP[Hyp]G[2Thi][Dap]([Phe-Gly-dA-Tyr])[dTic][Oic]R-OH)
Mu-type opioid receptor
  IC50: 15.5 nM
[2]
  IC50: 0.603 nM
